From PMC12441834, “Highly Potent and Subtype-Selective Sperm-Specific Potassium Channel SLO3 Inhibitors Display High Tissue Exposure in the Murine Female Reproductive Tract” (ACS Pharmacology & Translational Science, 2025)

Key:
[1] = target: T1, human SLO3 (Homo sapiens, UniProt A8MYU2); assay: SLO3 patch-clamp electrophysiology, human SLO3-γ2 expressed in HEK293 cells; type: cell-based; conditions: for inhibition at 10 µM: HEK293, read-out: HEK hSLO3 % of inhib. at 10 μM; for IC50: transfected HEK293 cells (human SLO3-γ2), whole-cell patch clamp, currents at +100 mV, read-out: hSLO3 IC50
T1 construct: expressed in transfected cells
T1 sequence (A8MYU2 1-1149): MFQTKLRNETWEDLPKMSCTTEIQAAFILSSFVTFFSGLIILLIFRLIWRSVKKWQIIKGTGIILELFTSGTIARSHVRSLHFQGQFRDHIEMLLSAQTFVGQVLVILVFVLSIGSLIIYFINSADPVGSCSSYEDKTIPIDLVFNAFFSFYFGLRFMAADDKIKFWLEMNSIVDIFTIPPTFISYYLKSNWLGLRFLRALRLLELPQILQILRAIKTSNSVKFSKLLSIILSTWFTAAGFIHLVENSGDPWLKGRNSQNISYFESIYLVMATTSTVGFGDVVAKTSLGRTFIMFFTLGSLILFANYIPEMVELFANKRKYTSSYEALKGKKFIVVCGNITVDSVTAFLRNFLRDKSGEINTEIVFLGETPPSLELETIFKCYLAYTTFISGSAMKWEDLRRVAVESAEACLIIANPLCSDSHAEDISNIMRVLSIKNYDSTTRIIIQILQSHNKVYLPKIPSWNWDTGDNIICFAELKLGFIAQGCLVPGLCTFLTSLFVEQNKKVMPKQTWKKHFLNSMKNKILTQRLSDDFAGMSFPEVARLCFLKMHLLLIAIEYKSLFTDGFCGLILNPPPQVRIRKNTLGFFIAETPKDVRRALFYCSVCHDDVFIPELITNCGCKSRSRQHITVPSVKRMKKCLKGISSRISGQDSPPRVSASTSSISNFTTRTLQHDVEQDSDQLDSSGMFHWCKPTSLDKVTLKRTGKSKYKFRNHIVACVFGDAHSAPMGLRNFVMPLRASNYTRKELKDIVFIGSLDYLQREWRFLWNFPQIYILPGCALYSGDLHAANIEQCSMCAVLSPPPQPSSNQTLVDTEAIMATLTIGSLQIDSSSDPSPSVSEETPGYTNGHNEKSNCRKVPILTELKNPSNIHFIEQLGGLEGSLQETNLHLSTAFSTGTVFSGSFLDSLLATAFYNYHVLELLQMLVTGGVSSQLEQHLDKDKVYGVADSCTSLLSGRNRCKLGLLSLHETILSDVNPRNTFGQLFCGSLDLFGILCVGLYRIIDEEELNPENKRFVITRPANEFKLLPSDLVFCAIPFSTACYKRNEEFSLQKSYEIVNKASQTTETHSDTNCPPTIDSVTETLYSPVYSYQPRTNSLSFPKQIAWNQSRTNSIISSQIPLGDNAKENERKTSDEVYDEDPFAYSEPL
T1 sequence (Q8N7C0 24-313 partner): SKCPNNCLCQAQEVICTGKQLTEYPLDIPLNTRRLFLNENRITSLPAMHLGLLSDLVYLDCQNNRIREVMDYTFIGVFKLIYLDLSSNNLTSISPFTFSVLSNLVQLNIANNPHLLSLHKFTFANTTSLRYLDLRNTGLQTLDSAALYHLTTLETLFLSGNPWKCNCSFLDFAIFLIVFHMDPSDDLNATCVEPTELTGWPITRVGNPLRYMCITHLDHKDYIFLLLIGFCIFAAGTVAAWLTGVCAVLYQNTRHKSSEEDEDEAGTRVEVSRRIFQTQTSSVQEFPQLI
Experimental: (§1) HEK293 cells were transfected with the bicistronic vector pBUD-CE4.1 containing the genes of interest and a gene conferring antibiotic resistance. Cells were exposed to gradients of selection antibiotics, and optimal growth conditions for the stable lines were as follows: SLO3 and γ2 (SLO3-γ2) supplemented with 700 μg/mL Zeocin (Invitrogen); human SLO1 and β1 (SLO1-β1) with 1 mg/mL G418 (Sigma) and 3 μg/mL puromycin (Corning, Thermo Fisher); and human SLO1 and β4 (SLO1-β4) with 250 μg/mL Zeocin and 3 μg/mL puromycin. All cell lines were grown in Dulbecco’s Modified Eagle Medium (Gibco, Thermo Fisher) supplemented with 10% fetal bovine serum, 1% penicillin–streptomycin (Millipore Sigma), and selection antibiotics. To generate cells expressing SLO1 and γ2, stable SLO1-expressing HEK293 cells were transiently transfected with expression vectors for γ2 and green fluorescent protein (GFP) in the presence of lipofectamine (Invitrogen) for 5 h.
(§2) The cells were then washed and incubated in supplemented Dulbecco’s Modified Eagle Medium for 48 h before use. Patch-clamp electrophysiology was performed only on cells expressing GFP.
(§3) Currents in HEK293 cells were measured in the whole-cell patch-clamp configuration with an Axopatch 200B amplifier, digitized with a Digidata 1440A, and interfaced with Clampex 10.6.0.13 (Molecular Devices). […] An isolated cell was located on an Axiovert 200 microscope (Zeiss), and a gigaohm seal was formed with a borosilicate pipette with resistance between 3 and 6 MΩ and filled with internal solution (140 mM KMeSO3, 10 mM HEPES, 10 mM MES, 1 mM EGTA, pH 7). The seal was then broken by applying a negative pressure. Cells were kept at a holding potential of −60 mV for 50 ms, tested with a stepped voltage protocol from −80 to +150 mV in 10 mV increments for 100 ms, and then dropped to −40 mV for 50 ms with 2.5 s between sweeps. This protocol was used to record currents present with increasing concentration of our compound of interest or 3 μL/mL vehicle (DMSO) in the bath solution. Individual cells were tested with between 1 and 5 concentrations of the compound of interest or until the patch was lost. Currents were allowed to stabilize before the initial recording and after the perfusion solution was changed before recording.
Data were analyzed with a pClamp 10.6 (Molecular Devices). VU6047606 and VU6032735 inhibition dose–response relationships were fit by the Hill equation in OriginPro 7.5 (OriginLab Corporation): R=1/1+(C/IC50)^n+Ioff , in which R is fractional unblock, C is compound concentration, IC50 is the half inhibition concentration, n is the Hill coefficient, and I off is an offset item for leak current. Error bars in the figures represent the SDs. Each data point is averaged from at least 5 measurements. Curve-fitting results are reported as the fitted values with standard error, which was estimated by OriginPro according to the Error Propagation formula.

[2] = target: T2, hSLO1 (Homo sapiens, UniProt Q12791); assay: SLO1 inhibition in HEK cells; type: cell-based
T2 construct: expressed in transfected cells; host or cells: HEK293
T2 sequence (Q12791 whole entry): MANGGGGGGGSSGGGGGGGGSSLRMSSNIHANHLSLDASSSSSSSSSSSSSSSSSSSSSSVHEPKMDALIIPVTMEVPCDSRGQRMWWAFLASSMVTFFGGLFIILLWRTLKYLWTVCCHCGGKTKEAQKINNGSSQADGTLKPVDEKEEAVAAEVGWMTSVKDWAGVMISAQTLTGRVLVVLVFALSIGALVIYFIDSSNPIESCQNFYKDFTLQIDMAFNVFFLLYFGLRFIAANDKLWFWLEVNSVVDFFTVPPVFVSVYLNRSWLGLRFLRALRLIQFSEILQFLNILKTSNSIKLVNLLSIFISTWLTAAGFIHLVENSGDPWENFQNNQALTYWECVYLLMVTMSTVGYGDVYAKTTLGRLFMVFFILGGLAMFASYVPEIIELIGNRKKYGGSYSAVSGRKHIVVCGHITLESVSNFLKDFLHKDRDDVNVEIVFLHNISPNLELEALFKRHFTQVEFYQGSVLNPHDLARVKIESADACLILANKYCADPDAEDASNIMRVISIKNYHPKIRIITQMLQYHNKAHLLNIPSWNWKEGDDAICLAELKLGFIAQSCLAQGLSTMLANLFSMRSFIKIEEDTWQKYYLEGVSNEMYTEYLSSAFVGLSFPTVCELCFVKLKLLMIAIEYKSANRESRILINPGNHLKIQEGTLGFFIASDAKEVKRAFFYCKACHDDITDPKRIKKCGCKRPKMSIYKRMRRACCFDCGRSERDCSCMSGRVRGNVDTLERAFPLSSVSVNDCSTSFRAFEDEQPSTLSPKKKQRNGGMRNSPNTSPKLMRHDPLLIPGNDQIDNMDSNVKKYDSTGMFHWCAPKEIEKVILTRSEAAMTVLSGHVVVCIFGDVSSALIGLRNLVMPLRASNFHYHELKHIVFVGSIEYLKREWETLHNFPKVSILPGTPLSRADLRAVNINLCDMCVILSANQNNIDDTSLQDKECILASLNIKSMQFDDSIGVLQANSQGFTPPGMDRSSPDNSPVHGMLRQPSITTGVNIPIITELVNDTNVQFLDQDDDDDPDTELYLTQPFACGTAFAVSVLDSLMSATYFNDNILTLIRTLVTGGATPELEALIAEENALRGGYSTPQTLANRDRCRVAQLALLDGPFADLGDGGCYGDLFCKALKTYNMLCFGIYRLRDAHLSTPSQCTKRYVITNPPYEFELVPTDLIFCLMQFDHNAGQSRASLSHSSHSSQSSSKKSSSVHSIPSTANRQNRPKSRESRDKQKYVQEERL
Experimental: as §1, §2, §3

Row | IC50 [1] | SMILES | inhibition at 10 µM [1] | also measured
1 | 112 nM | Cc1cc(Cl)cc2sc(O[C@H]3CCN(C(=O)CCCS(=O)(=O)c4cccc(Br)c4)C[C@@H]3F)nc12 [VU6047609] |  | 
2 | 583 nM | Cc1cc(Cl)cc2sc(O[C@@H]3CCN(C(=O)CCCS(=O)(=O)c4cccc(Br)c4)C[C@@H]3F)nc12 [VU6047608] |  | 

The next lines start with the molecule.

Row | SMILES | IC50 [1] | inhibition at 10 µM [1] | also measured
3 | Cc1cc(Cl)cc2sc(O[C@H]3CCN(C(=O)CCCS(=O)(=O)c4cccc(Br)c4)C[C@H]3F)nc12 [VU6047606] | 43 nM | 100% | inhibition at 30 µM ([2]; HEK293, read-out: HEK hSLO1 % inhib. at 30 μM): 10%
4 | O=C(c1ccc(OCc2ccc(OC(F)(F)F)cc2)cc1)N1CCN(c2ccc(C(F)(F)F)cn2)CC1 [VU6032735] | 165 nM | 100% | HEK hSLO1 % inhib. at 30 μM ([2]; 30 μM): No inhibition
5 | Cc1cc(Cl)cc2sc(O[C@@H]3CCN(C(=O)CCCS(=O)(=O)c4cccc(Br)c4)C[C@H]3F)nc12 [VU6047607] | 457 nM |  | 
6 | Cc1cc(Cl)cc2sc(OC3CCN(C(=O)CCCS(=O)(=O)c4cccc(Br)c4)CC3F)nc12 (stereo not drawn) [VU6045330] | 135 nM |  | IC50 [2]: 109000 nM; SLO1 selectivity (fold selective for SLO3) ([2]; SLO1 IC50 / hSLO3 IC50): 802 fold
